Reference: patent publication US10000471B2, “Pyrazole P38 map kinase inhibitors” (Respivert Limited, priority 2010, dated 2018)

What was measured:
[1] = target: T1, p38 MAPKα isoform (MAPK14) (Homo sapiens, UniProt Q16539); test: Enzyme inhibition assay (FRET, Z-LYTE), p38 MAPKα via MAPKAP-K2 activation; type: biochemical; conditions: read-out: Enzyme Inhibition IC50 p38α
T1 construct: purchased Invitrogen
How it was run: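 Recombinant p38 MAPKα was preincubated with compound for 2 h at RT. Its activity was measured indirectly through activation/phosphorylation of downstream MAPKAP-K2, with a Z-LYTE FRET peptide read-out (coumarin/fluorescein ratio) after a 1 h development step. IC50 came from concentration-response curves of percent inhibition versus an uninhibited control.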

[2] = test system: TNFα release in THP-1 cells; test: LPS-induced TNFα release in THP-1 cells; type: cell-based, human; conditions: Homo sapiens
How it was run: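 Human monocytic THP-1 cells stimulated with 3 μg/mL E. coli LPS for 4 hr; supernatant TNFα measured by sandwich ELISA. Inhibition at each concentration versus vehicle control, IC50 from concentration-response curve.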

p38 MAPKγ (MAPK12) = target: T2, p38 MAPKγ (MAPK12) (Homo sapiens, UniProt P53778); test: Enzyme inhibition assay (FRET, Z-LYTE), p38 MAPKγ; type: biochemical; conditions: read-out: Enzyme Inhibition IC50 p38γ
T2 construct: purchased Invitrogen
T2 sequence (P53778 1-367): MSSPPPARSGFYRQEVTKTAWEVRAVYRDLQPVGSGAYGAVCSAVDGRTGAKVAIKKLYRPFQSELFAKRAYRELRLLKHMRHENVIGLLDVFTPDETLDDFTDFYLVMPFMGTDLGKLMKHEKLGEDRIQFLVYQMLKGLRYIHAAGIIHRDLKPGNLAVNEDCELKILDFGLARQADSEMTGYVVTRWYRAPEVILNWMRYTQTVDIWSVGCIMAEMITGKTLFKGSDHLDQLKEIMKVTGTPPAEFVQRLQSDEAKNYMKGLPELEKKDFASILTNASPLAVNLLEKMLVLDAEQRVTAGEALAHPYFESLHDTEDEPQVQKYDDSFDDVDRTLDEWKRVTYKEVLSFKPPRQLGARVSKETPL
How it was run: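 Recombinant phosphorylated p38 MAPKγ preincubated 2 h at RT with compound in HEPES buffer, then 2 μM FRET peptide and 100 μM ATP added for 1 h; protease development 1 h. Coumarin/fluorescein emission ratio gave phosphorylation; IC50 from concentration-response versus uninhibited control.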

[3] = test system: TNFα release in d-U937 cells; test: LPS-induced TNFα release in d-U937 cells; type: cell-based, human; conditions: Homo sapiens, dU937, relative to 10 μg/mL BIRB796, read-out: LPS/TNFα REC50 d-U937
How it was run: (§1)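 PMA-differentiated (100 ng/ml, 48–72 hr) U937 macrophage-type cells pre-incubated 2 hr with compound, then stimulated 4 hr with 0.1 μg/mL E. coli O111:B4 LPS; supernatant TNFα and IL-8 measured by sandwich ELISA. TNFα inhibition expressed relative to 10 μg/mL BIRB796, giving REC50; IL-8 inhibition versus vehicle, giving IC50.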

[4] = test system: ICAM-1 induction in BEAS2B cells; test: Poly I:C-induced ICAM-1 induction in BEAS2B cells; type: cell-based, human; conditions: Homo sapiens, BEAS-2B, read-out: PolyIC/ICAM1 IC50 BEAS2B
How it was run: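 Human bronchial epithelial BEAS2B cells were pre-incubated with compound for 2 hr, then transfected with 1 μg/mL poly I:C. After 18 hr, surface ICAM-1 was measured by cell-based ELISA (OD450-655) and normalized to crystal violet cell counts (OD595). IC50 came from inhibition versus vehicle across the concentration-response curve.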

[5] = test system: IL-8 release in d-U937 cells; test: LPS-induced IL-8 release in d-U937 cells; type: cell-based, human; conditions: Homo sapiens, dU937
How it was run: as §1

[6] = test system: Differentiated U937 cells; test: Cell viability MTT assay; type: cell-based, human; conditions: negative = apparent increase in viability; for MTT Assay (Viability) 4 h d-U937, percentage loss of cell viability: 4 hr in 5% FCS; for MTT Assay (Viability) 24 h d-U937, percentage loss of cell viability: 24 h in 10% FCS
How it was run: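 Differentiated U937 cells pre-incubated with compound either 4 hr in 5% FCS or 24 h in 10% FCS, then 1 hr MTT. Formazan dissolved in DMSO, absorbance at 550 nm. Percentage viability loss relative to 0.5% DMSO vehicle; apparent increases appear as negative percentages.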

T1 sequence (Q16539 whole entry, canonical isoform): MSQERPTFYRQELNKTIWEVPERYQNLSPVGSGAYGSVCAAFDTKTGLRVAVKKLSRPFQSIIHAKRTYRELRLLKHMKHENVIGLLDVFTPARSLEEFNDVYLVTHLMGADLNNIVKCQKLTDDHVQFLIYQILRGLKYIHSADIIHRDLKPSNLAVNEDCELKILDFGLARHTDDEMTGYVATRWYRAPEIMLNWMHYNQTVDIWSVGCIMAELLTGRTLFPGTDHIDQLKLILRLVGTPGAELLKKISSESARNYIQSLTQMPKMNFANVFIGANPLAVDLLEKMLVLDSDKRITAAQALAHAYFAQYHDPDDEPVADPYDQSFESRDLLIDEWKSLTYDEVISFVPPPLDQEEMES

SMILES	IC50 [1] [nM]	IC50 [2] [nM]	IC50 (p38 MAPKγ (MAPK12)) [nM]	EC50 [3] [nM]	IC50 [4] [nM]	IC50 [5] [nM]	MTT Assay (Viability) 4 h d-U937, percentage loss of cell viability [6] [%]	MTT Assay (Viability) 24 h d-U937, percentage loss of cell viability [6] [%]
COc1ccc(-n2nc(C(C)(C)C)cc2NC(=O)Nc2ccc(Oc3ccnc(NC(=O)CN(C)C)c3)c(Cl)c2Cl)cc1 [Example 43, N-(4-(4-(3-(3-tert-butyl-1-(4-methoxyphenyl)-1H-pyrazol-5-yl)ureido)-2,3-dichlorophenoxy)pyridin-2-yl)-2-(dimethylamino)acetamide]	27.5	0.4	78.1	0.9	2.3	1.3	−18.7	79.1
COCC(=O)Nc1cc(Oc2ccc(NC(=O)Nc3cc(C(C)(C)C)nn3-c3ccc(OC)cc3)c(Cl)c2Cl)ccn1 [Example 44, N-(4-(4-(3-(3-tert-butyl-1-(4-methoxyphenyl)-1H-pyrazol-5-yl)ureido)-2,3-dichlorophenoxy)pyridin-2-yl)-2-methoxyacetamide]	7.9	1.8	48.4	2.2	0.9	20.7	−25.9	87.1
COc1ccc(-n2nc(C(C)(C)C)cc2NC(=O)Nc2ccc(Oc3ccnc(NC(=O)CN4CCOCC4)c3)c(Cl)c2Cl)cc1 [Example 45, N-(4-(4-(3-(3-tert-butyl-1-(4-methoxyphenyl)-1H-pyrazol-5-yl)ureido)-2,3-dichlorophenoxy)pyridin-2-yl)-2-morpholinoacetamide]	27.4	0.8	84.7	0.7	9	1	−4.8	56.2
CN(C)CC(=O)Nc1cc(Oc2ccc(NC(=O)Nc3cc(C(C)(C)C)nn3-c3ccc(CO)cc3)c(Cl)c2Cl)ccn1 [Example 46, N-(4-(4-(3-(3-tert-butyl-1-(4-hydroxymethylphenyl)-1H-pyrazol-5-yl)ureido)-2,3-dichlorophenoxy)pyridin-2-yl)-2-(dimethylamino) acetamide]	20.9	0.3	38.7	0.9	2.4	1.1	−12.6	82.7
CN(C)CCCC(=O)Nc1cc(Oc2ccc(NC(=O)Nc3cc(C(C)(C)C)nn3-c3ccc(CO)cc3)c(Cl)c2Cl)ccn1 [Example 47, N-(4-(4-(3-(3-tert-butyl-1-(4-hydroxymethylphenyl)-1H-pyrazol-5-yl)ureido)-2,3-dichlorophenoxy)pyridin-2-yl)-4-(dimethylamino) butanamide]	2.2	0.5	5.9	1.6	6.4	8.2	−42.5	85.0
CC(C)(C)c1cc(NC(=O)Nc2ccc(Oc3ccnc(NC(=O)CN4CCOCC4)c3)c(Cl)c2Cl)n(-c2ccc(CO)cc2)n1 [Example 48, N-(4-(4-(3-(3-tert-butyl-1-(4-hydroxymethylphenyl)-1H-pyrazol-5-yl)ureido)-2,3-dichlorophenoxy)pyridin-2-yl)-2-morpholino-acetamide]	6.3	0.4	22.4	1.1	2.2	5.1	12.5	84.1
